Data on 19 compounds can be found in ChEMBL document CHEMBL1128768, “Structure-activity relationships of tricyclic quinoxalinediones as potent antagonists for the glycine binding site of the NMDA receptor 1” (Bioorg Med Chem Lett, 1995).

One may read the Ki as a dissociation constant, usually derived from enzyme kinetics or from competition with a known ligand. The low end stands for higher affinity, the high end for lower affinity.

In the experiment the target is Glutamate receptor ionotropic, NMDA 1 (Rattus norvegicus, UniProt P35439). Briefly: Affinity measured by using [3H]5,7-dichlorokynurenic acid (DCKA) for the glycine binding site of NMDA receptor.
Regarding `CC(C(=O)O)[C@@H]1CCc2cc(Br)cc3[nH]c(=O)c(=O)n1c23` (stereo in doubt; 23a), the Ki came to 241 nM.

As for `CC[C@H]1Cc2cc(Br)cc3[nH]c(=O)c(=O)n(c23)[C@@H]1CC(=O)O`, affinity was put at a Ki of 1.4 nM. For the compound `CC(C(=O)Nc1ccccc1)[C@@H]1CCc2cc(Br)cc3[nH]c(=O)c(=O)n1c23` (stereo in doubt; 24b), the affinity corresponds to a Ki of 590 nM. Under `C[C@H]1Cc2cc(Br)cc3[nH]c(=O)c(=O)n(c23)[C@@H]1CC(=O)O` stands 3.3 nM; under `C[C@@H]1Cc2cc(Br)cc3[nH]c(=O)c(=O)n(c23)[C@@H]1CC(=O)O`, 29.6 nM; under `C[C@@H]1C[C@@H](CC(=O)O)n2c(=O)c(=O)[nH]c3cc(Br)cc1c32`, 38.3 nM.

Regarding `O=C(O)C[C@@H]1CCc2cc(Br)cc3[nH]c(=O)c(=O)n1c23`, the inhibition constant Ki is 9.9 nM. Under `C[C@@H]1C[C@@H](CC(=O)Nc2ccccc2)n2c(=O)c(=O)[nH]c3cc(Br)cc1c32` stands 7.4 nM.

`C[C@@H]1Cc2cc(Br)cc3[nH]c(=O)c(=O)n(c23)[C@@H]1CC(=O)Nc1ccccc1` had a Ki of 21 nM. Under `C[C@@]1(CC(=O)O)CCc2cc(Br)cc3[nH]c(=O)c(=O)n1c23` stands 451 nM; under `C[C@H]1C[C@@H](CC(=O)Nc2ccccc2)n2c(=O)c(=O)[nH]c3cc(Br)cc1c32`, 17.1 nM; under `C[C@H]1Cc2cc(Br)cc3[nH]c(=O)c(=O)n(c23)[C@@H]1CC(=O)Nc1ccccc1`, 3 nM.

`C[C@H]1C[C@@H](CC(=O)O)n2c(=O)c(=O)[nH]c3cc(Br)cc1c32` displayed a Ki of 42 nM. `CC(C(=O)O)[C@@H]1CCc2cc(Br)cc3[nH]c(=O)c(=O)n1c23` (stereo in doubt; 24a): the affinity, expressed as Ki, was 300 nM. For `CC[C@H]1Cc2cc(Br)cc3[nH]c(=O)c(=O)n(c23)[C@@H]1CC(=O)Nc1ccccc1` the value was 3.8 nM; for `CC(C)[C@H]1Cc2cc(Br)cc3[nH]c(=O)c(=O)n(c23)[C@@H]1CC(=O)O`, 8.4 nM. For `O=C(C[C@@H]1CCc2cc(Br)cc3[nH]c(=O)c(=O)n1c23)Nc1ccccc1` the value was 2.6 nM. For `C[C@@]1(CC(=O)Nc2ccccc2)CCc2cc(Br)cc3[nH]c(=O)c(=O)n1c23` the value was 760 nM; for `CC(C(=O)Nc1ccccc1)[C@@H]1CCc2cc(Br)cc3[nH]c(=O)c(=O)n1c23` (stereo in doubt; 23b), 665 nM.
